Experimental findings from patent US20210275488A1, “NOVEL COMPOUND ISOLATED FROM CERVI PARVUM CORNU, AND PHARMACEUTICAL USES THEREOF” (FNG RESEARCH CO., LTD., priority 2018, published 2021) are described below.

The test system of data set [1] is neutropenia induced by an anticancer agent (tamoxifen). As to the kind of experiment: Mouse experiment of antineoplastic chemotherapy-induced neutropenia (tamoxifen). The format is in vivo, C57BL/6 mice. As to conditions: for Number of neutrophils: Tamoxifen (50 mg/kg) i.p. daily 3 weeks, compound 50 mg/kg oral daily 3 weeks, neutrophils in 1 μl of blood; for decrease in the number of neutrophils: tamoxifen 50 mg/kg plus compound 50 mg/kg oral. Here is the method:
50 mg/kg of Tamoxifen, used as an anticancer agent, was intraperitoneally injected into C57BL/6 mice every day for 3 weeks and used as a control group, and 50 mg/kg of the compounds of Example 1, Example 2, and Comparative Example 1 were orally administered for 3 weeks every day, and after 3 weeks, the number of neutrophils in 1 μl of blood was measured using an automatic blood sample analyzer (Auto Hematology Analyzer BC-5900, Mindray), and the results are shown in Table 8 and FIG. 12 below.

In the next data set the test system is peritoneal macrophages. In words: Evaluation of cytotoxicity using MTT assay. The format is cell-based, C57BL/6 mice. As to conditions: 24 hours. Here is the method:
(§1) As experimental animals, 8-week-old C57BL/6 mice were bred for 7 days under the environment of a temperature of 22±2° C., a relative humidity of 65±5% and a 12-hour cycle in light and dark, and then adapted to the laboratory environment, and then used for the experiment. Solid feed (Samyang feed) and water were sufficiently supplied.
(§2) HBSS was intraperitoneally injected into a mouse to extract macrophages, which was centrifuged at 3,000 rpm for 5 minutes, and then 100 units/mL of penicillin/streptomycin was added to DMEM medium with 10% fetal bovine serum (FBS), and peritoneal macrophage was isolated. It was incubated in a 37° C., 5% CO2 incubator for 24 hours, and then used in the experiment.
100 uL of the cultured peritoneal macrophages were dispensed into a 96-well plate at 3×10^5 cells/well and cultured overnight. After removing the medium, the peritoneal macrophage was treated with the compounds of Example 1 (PCA glycerol) and Example 2 (CPA glycerol) at different concentrations (10 μg/ml, 100 μg/ml, and 200 μg/ml, respectively), and then incubated for 24 hours in a 37° C., 5% CO2 incubator. After incubation, the medium was removed, 40 uL of MTT (5 mg/mL) reagent was dispensed and incubated for 4 hours in a CO2 incubator, the MTT reagent was removed, and 600 uL of DMSO reagent was dispensed, and then left at room temperature for 30 minutes. Then, the absorbance (OD) was measured at 540 nm with a microplate reader.
In general terms: Tetrazolium assays rely on reduction of a dye to a coloured formazan, in cell work by metabolically active cells.

In a further data set the test system is IL-6. As to the kind of experiment: Inhibition of IL-6 production in LPS-induced mouse peritoneal macrophages (ELISA). The format is cell-based. As to conditions: LPS (1 μg/ml), 12 hours. Here is the method:
as §1, §2
(§3) The secretion amount of IL-6, IL-1β and TNF-α secreted from mouse peritoneal macrophages induced by lipopolysaccharide (LPS), which is an inflammatory response inducer, was measured by an ELISA assay (Millipore, USA) to thereby evaluate the anti-inflammatory activity.
(§4) In order to obtain a cell culture solution, mouse peritoneal macrophages were adjusted to 3×10^5 cells/mL, inoculated into a 96-well plate, cultured for 24 hours, and then the compounds of Example 1 (PCA glycerol), Example 2 (CPA glycerol) and Comparative Example (PLA glycerol) were treated at different concentrations (10 μg/ml, 100 μg/ml, and 200 μg/ml, respectively), and LPS (1 μg/ml) was treated. The normal group was untreated, and the control group was treated with only LPS (1 μg/ml) on peritoneal macrophages. After culturing for 12 hours, a supernatant was obtained by centrifugation. ELISA was run in microplates coated with anti-mouse IL-6, IL-1β and TNF-α as the capture antibody. Then, the cells were washed with phosphate buffered saline (PBST) containing 0.05% Tween 20, blocked with 10% FBS, and washed with PBST. The cell culture supernatant was dispensed into the wells, and reacted at room temperature for 2 hours. After the reaction, washing was performed with PBST and dilute biotinylated anti-mouse IL-6, IL-1β and TNF-α detection antibody and streptavidin-horseradish peroxydase conjugate were dispensed and reacted at room temperature for 1 hour. Then, washing was performed again with PBST, and an OPD solution was added, and then the mixture was subjected to dark reaction at room temperature for 30 minutes. After the reaction was terminated with 2N H2504, the absorbance was measured at 450 nm using a microplate reader.
On the technique in general: In an ELISA, binding on a coated surface is turned into a signal by an enzyme label.

A further data set concerns IL-1β. As to the kind of experiment: Inhibition of IL-1β production in LPS-induced mouse peritoneal macrophages (ELISA). The following applies: LPS (1 μg/ml), 12 hours. The format is cell-based. Here is the method: as §1, §2, §3, §4
In another data set the test system is TNF-α. As to the kind of experiment: Inhibition of TNF-α production in LPS-induced mouse peritoneal macrophages (ELISA). The class given is cell-based. The following applies: LPS (1 μg/ml), 12 hours. Here is the method: as §1, §2, §3, §4
In a further data set the test system is NO production. As to the kind of experiment: Inhibition of NO production in LPS-treated peritoneal macrophages (Griess reagent). The format is cell-based, C57BL/6 mice. The following applies: 24 hours, LPS control group = 100. Here is the method:
as §1, §2
The cultured peritoneal macrophages were suspended in DMEM containing 10% FBS, dispensed into a 96-well plate at 5×10^5 cells/well and incubated for 24 hours in a 37° C., 5% CO2 incubator, and replaced with new DMEM medium. Then, the peritoneal macrophages were treated with each of the compounds of Examples 1 and 2 and Comparative Example at different concentrations (10 μg/ml, 100 μg/ml, and 200 μg/ml, respectively), and LPS (1 μg/ml) was treated. Then, the cells were incubated for 24 hours. After incubation, the supernatant was separated, centrifuged at 3000 rpm for 5 minutes, and the separated supernatant was dispensed onto a new microplate. The normal group was untreated, and the control group was treated with only LPS (1 μg/ml) on the peritoneal macrophages.
The same amount of Griess reagent (1% sulfanilamide, 0.1% naphthyl-ethylenediamine dihydrochloride, 2% phosphoric acid) was treated, and reacted at room temperature for 10 minutes. After the culture solution was reacted with the Griess solution for […], the absorbance (OD) was measured at 540 nm.
(In general: The Griess reaction detects nitrite, a stable product of nitric oxide.)

The subject of data set [2] is neutropenia induced by an anticancer agent (gemcitabine). In words: Mouse experiment of antineoplastic chemotherapy-induced neutropenia (gemcitabine). The format is in vivo, C57BL/6 mice. The following applies: for Number of neutrophils: Gemcitabine (50 mg/kg) i.p. daily 3 weeks, compound 50 mg/kg oral daily 3 weeks, neutrophils in 1 μl of blood; for reduction in the number of neutrophils: 3 weeks, relative to normal group. Here is the method: 50 mg/kg of gemcitabine, used as an anticancer agent, was injected intraperitoneally into C57BL/6 mice every day for 3 weeks and used as a control group. 50 mg/kg of the compounds of Example 1, Example 2, and Comparative Example 1 were orally administered for 3 weeks every day, and after 3 weeks, the number of neutrophils in 1 μl of blood was measured using an automatic blood sample analyzer (Auto Hematology Analyzer BC-5900, Mindray), and the results are shown in Table 7 and FIG. 11 below.

Where [3] appears, read: gemcitabine 50 mg/kg plus compound 50 mg/kg oral.
Where [4] appears, read: 3 weeks, relative to normal group.

Take `CC/C(=C(\c1ccccc1)c1ccc(OCCN(C)C)cc1)c1ccccc1` [tamoxifen, Tamoxifen, reference compound]: the “decrease in number of neutrophils” value in data set [1] (mice treated with tamoxifen 50 mg/kg i.p. alone (control group), 3 weeks, relative to normal group) was “about 37%”.

Consider “1-Conjugated-Linoeoyl-2-Palmitoyl-3-Acetyl Glycerol [Example 2]”, for which the “Cell viability (%)” value turned out to be 100 ± 0.9% with peritoneal macrophages (10 μg/ml), 98.3 ± 1.7% with peritoneal macrophages (100 μg/ml) and 98.0 ± 2.8% in the data set with peritoneal macrophages (200 μg/ml). Moreover, the entries for the “IL-6 production amount” value in the data set on IL-6 (compound 10 μg/ml), with IL-6 (compound 100 μg/ml) and with IL-6 (compound 200 μg/ml) were 325 ± 13 pg/mL, 234 ± 20 pg/mL and 179 ± 17 pg/mL, respectively. For the same molecule, the “IL-1β Production amount” value in the data set on IL-1β (compound 10 μg/ml) was 40 ± 1.7 pg/mL; with IL-1β (compound 100 μg/ml), 32 ± 2.4 pg/mL; in the data set on IL-1β (compound 200 μg/ml), 28 ± 1.7 pg/mL. Further, the entries for the “TNF-α production amount” value in the data set with TNF-α (compound 10 μg/ml), in the data set on TNF-α (compound 100 μg/ml) and with TNF-α (compound 200 μg/ml) were 175 ± 7 pg/mL, 151 ± 10 pg/mL and 123 ± 7 pg/mL, respectively. For the same molecule, the entries for the “NO production rate (%)” value in the data set with NO production (compound 10 μg/ml), with NO production (compound 100 μg/ml) and with NO production (compound 200 μg/ml) were 50 ± 2%, 44 ± 3% and 34 ± 1%, respectively. Moreover, the Number of neutrophils was 1142 ± 62 µL⁻¹ in data set [2] and 1124 ± 57 µL⁻¹ in data set [1]. Further, the “reduction in the number of neutrophils” value in data set [2] (setting [3]) was found to be 6.7%. Moreover, in data set [1] (setting [4]), the “decrease in the number of neutrophils” value is on record as “about 8.2%”.

As to `CCCCC/C=C\C/C=C\CCCCCCCC(=O)OC(COC(C)=O)COC(=O)CCCCCCCCCCCCCCC` (centres unmarked) [Comparative Example, 1-Palmitoyl-2-Linoleoyl-3-Acetyl Glycerol, reference compound], the results for the “IL-6 production amount” value with IL-6 (compound 10 μg/ml), with IL-6 (compound 100 μg/ml) and in the data set on IL-6 (compound 200 μg/ml) were 364 ± 16 pg/mL, 251 ± 24 pg/mL and 203 ± 25 pg/mL, respectively. For the same molecule, the “IL-1β Production amount” value was determined as 43 ± 2.2 pg/mL with IL-1β (compound 10 μg/ml), 31 ± 2.4 pg/mL in the data set with IL-1β (compound 100 μg/ml) and 31 ± 3.1 pg/mL in the data set on IL-1β (compound 200 μg/ml). Moreover, the “TNF-α production amount” value in the data set with TNF-α (compound 10 μg/ml) is 184 ± 21 pg/mL; with TNF-α (compound 100 μg/ml), 155 ± 12 pg/mL; in the data set with TNF-α (compound 200 μg/ml), 137 ± 7 pg/mL. The “NO production rate (%)” value in the data set with NO production (compound 10 μg/ml) came to 56 ± 3%; in the data set with NO production (compound 100 μg/ml) it was 45 ± 2%; with NO production (compound 200 μg/ml), 41 ± 3%. Besides, the Number of neutrophils is 1047 ± 42 µL⁻¹ in data set [2] and 1066 ± 88 µL⁻¹ in data set [1]. The “reduction in the number of neutrophils” value in data set [2] (setting [3]) came to 14.5%. Moreover, in data set [1] (setting [4]), the “decrease in the number of neutrophils” value turned out to be 12.9%.

Take `Nc1ccn([C@@H]2O[C@H](CO)[C@@H](O)C2(F)F)c(=O)n1` [gemcitabine, reference compound]: the “reduction in the number of neutrophils” value in data set [2] (mice treated with gemcitabine 50 mg/kg i.p. alone (control group)) is on record as “about 45%”.

In the case of “1-Palmitoyl-2-Conjugated-Linoleoyl-3-Acetyl Glycerol [Example 1]”, the “Cell viability (%)” value in the data set with peritoneal macrophages (10 μg/ml) stood at 100 ± 2.1%; in the data set with peritoneal macrophages (100 μg/ml), 98.3 ± 1.9%; in the data set with peritoneal macrophages (200 μg/ml), 98.1 ± 1.2%. Moreover, the entries for the “IL-6 production amount” value in the data set on IL-6 (compound 10 μg/ml), with IL-6 (compound 100 μg/ml) and with IL-6 (compound 200 μg/ml) were 321 ± 22 pg/mL, 225 ± 23 pg/mL and 180 ± 25 pg/mL, respectively. The figures for the “IL-1β Production amount” value with IL-1β (compound 10 μg/ml), with IL-1β (compound 100 μg/ml) and in the data set with IL-1β (compound 200 μg/ml) were 40 ± 2.9 pg/mL, 28 ± 2.3 pg/mL and 26 ± 2.8 pg/mL, respectively. In addition, the “TNF-α production amount” value in the data set with TNF-α (compound 10 μg/ml) amounted to 170 ± 8 pg/mL; in the data set on TNF-α (compound 100 μg/ml) it was 153 ± 11 pg/mL; with TNF-α (compound 200 μg/ml) it was 121 ± 10 pg/mL. Moreover, the “NO production rate (%)” value in the data set with NO production (compound 10 μg/ml) is 52 ± 3%; with NO production (compound 100 μg/ml), 43 ± 3%; with NO production (compound 200 μg/ml) it was 37 ± 4%. Also, the Number of neutrophils in data set [2] was 1198 ± 43 µL⁻¹; in data set [1] it was 1146 ± 63 µL⁻¹. The “reduction in the number of neutrophils” value in data set [2] (setting [3]) was “about 2%”. For the same molecule, in data set [1] (setting [4]), the “decrease in the number of neutrophils” value is listed as “about 6.3%”.
